{"source": "patent US20260176275A1", "about": "“VINYLPHOSPHONIC ACID-MODIFIED MRNA CAP ANALOG, METHOD FOR PREPARING SAME, AND USE THEREOF” (Jiangsu Synthgene Biotechnology Co., Ltd., priority 2022, published 2026)", "key": {"[1]": {"biological_target": "T1, T7 RNA polymerase (Escherichia phage T7, UniProt P00573)", "T1 sequence (P00573 whole entry)": "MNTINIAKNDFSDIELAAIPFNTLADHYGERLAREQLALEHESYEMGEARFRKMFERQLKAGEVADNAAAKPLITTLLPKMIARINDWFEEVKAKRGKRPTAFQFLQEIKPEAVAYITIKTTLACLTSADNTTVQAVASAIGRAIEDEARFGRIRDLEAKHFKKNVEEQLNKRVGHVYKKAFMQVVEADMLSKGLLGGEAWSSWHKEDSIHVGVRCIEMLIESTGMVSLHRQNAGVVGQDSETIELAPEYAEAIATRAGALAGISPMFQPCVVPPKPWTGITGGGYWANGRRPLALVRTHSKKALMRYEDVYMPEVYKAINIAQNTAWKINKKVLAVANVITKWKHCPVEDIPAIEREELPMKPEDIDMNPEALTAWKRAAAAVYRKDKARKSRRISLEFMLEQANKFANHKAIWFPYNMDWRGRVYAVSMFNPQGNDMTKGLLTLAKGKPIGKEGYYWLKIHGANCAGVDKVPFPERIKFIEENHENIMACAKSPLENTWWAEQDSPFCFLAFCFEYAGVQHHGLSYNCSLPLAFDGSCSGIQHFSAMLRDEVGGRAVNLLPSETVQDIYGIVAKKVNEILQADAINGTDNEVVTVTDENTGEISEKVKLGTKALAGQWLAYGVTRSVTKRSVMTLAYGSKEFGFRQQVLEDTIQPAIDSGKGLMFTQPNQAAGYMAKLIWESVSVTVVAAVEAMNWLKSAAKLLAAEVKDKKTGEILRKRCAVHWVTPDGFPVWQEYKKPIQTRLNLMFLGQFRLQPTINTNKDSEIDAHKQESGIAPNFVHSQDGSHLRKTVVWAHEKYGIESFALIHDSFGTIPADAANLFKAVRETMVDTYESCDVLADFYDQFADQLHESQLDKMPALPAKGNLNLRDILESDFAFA", "experiment": "mRNA in-vitro transcription yield with cap analog (T7 IVT, Nanodrop One quantification)", "assay_type": "biochemical", "description": "(§1) In-vitro synthesis of mRNA cap analogs modified with vinylphosphonic acid: Firstly, a plasmid was linearized with NotI and digested at […] overnight. A DNA template was extracted. mRNAs were synthesized by in-vitro transcription using the vinylphosphonic acid-modified mRNA cap analogs of Examples 1-7 and compounds 10-13, 16, 17, 25, 31 and 34, and the cap analog of Comparative Example 1 as cap structures, respectively.\n(§2) Note: During the experiment, the volume of the materials required for the system was calculated firstly, and then sample loading was performed. Firstly, sterile enzyme-free water was added into the system, and then 10× buffer, NTPs, and the cap analog were sequentially added. The mixture was uniformly mixed and then gently centrifuged, followed by addition of the nuclease inhibitor, the inorganic pyrophosphatase, the T7 RNA polymerase, and the linearized DNA template. The mixture was well mixed, then gently centrifuged, and incubated at 37° C. After 2 h, DNase I (1 U) was added, and the mixture was incubated at 37° C. for another 30 min to remove the DNA template. RNA purification was then performed (usually using the magnetic bead purification method). The purified mRNA was dissolved in sterile enzyme-free water, and then quantitative detection was performed by using Nanodrop One."}, "[2]": {"biological_target": "T1, T7 RNA polymerase", "experiment": "IVT capping rate of mRNA by LC-MS after RNase H cleavage", "assay_type": "biochemical", "description": "as §1, §2\nLiquid chromatography-mass spectrometry (LC-MS) was used to detect the IVT capping rates of mRNAs with different starting cap analogs. Firstly, a labeled (usually biotin-labeled) DNA probe matched with the starting base of mRNA as the transcript product was required to be designed, and streptavidin-labeled magnetic beads were washed, and then incubated with the synthesized DNA probe, mRNA and 10× RNase H reaction buffer with slowly mixing at room temperature for 30 min. 20 L of RNase H (5 U/μL) was then added, and the mixture was incubated at 37° C. for 3 h, with uniform mixing every half hour. After the incubation was completed, the magnetic beads were cleaned, and then 100 μL of 75% methanol heated to 80° C. was added to the cleaned magnetic beads. The mixture was heated to 80° C. on a heating plate, held for 3 min, and then placed on a magnetic rack. The supernatant was pipetted and dried at room temperature for 45 min to 10 Lby using an evaporation centrifuge. The sample was then resuspended in 50 μL of 100 μM EDTA/1% MeOH for LC-MS analysis to determine the capping of RNA in the transcription reaction. Due to the significant difference in molecular weight between capped and uncapped bases, the capping rates of mRNA transcription initiated with different cap analogs can be determined by using the difference in molecular weight."}, "[3]": {"biological_target": "eukaryotic initiation factor (elF4E) (Homo sapiens, UniProt P06730)", "sequence (P06730 whole entry)": "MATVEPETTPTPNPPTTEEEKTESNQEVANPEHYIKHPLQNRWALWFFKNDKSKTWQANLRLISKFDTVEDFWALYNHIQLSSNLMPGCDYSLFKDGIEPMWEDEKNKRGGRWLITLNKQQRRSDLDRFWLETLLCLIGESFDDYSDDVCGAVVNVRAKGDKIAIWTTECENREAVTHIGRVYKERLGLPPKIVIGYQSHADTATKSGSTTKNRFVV", "experiment": "Assay of binding ability to eukaryotic initiation factor (elF4E), Biacore T100", "description": "Test method: Firstly, experimental samples, including the cap analog samples of Examples 1-7, compounds 10-13, 16, 17, 25, 31 and 34, and Comparative Example 1, were diluted with a running buffer (50 mM phosphate, 100 mM sodium chloride, and 0.01% vol/vol Tween 20, pH 6.0 or 7.4). The sample injection time was […], the sample injection flow rate was 20 L/min, and the dissociation time was […]. The residual samples were eluted with a regeneration buffer (10 mM HEPES, 150 mM NaCl, and 0.010% vol/vol Tween 20, pH 7.4) for 30 s at a flow rate of 30 μL/min. Finally, through analysis by Biacore T100 evaluation software (version 2.0.2), sensorgrams were generated and the binding constants were calculated."}, "[4]": {"test_system": "293T cells", "experiment": "mRNA translation efficiency: eGFP mRNA capped with the analogs transfected into 293T cells, GFP fluorescence", "assay_type": "cell-based", "conditions": "summary of Table 6", "description": "Test method: In-vitro transcription was initiated with the cap analogs of Examples 1-7, compounds 10-13, 16, 17, 25, 31 and 34, and Comparative Example 1 by using an eGFP coding sequence as a DNA template. The different mRNA products obtained were then transfected into 293T cells. The 293T cells were plated (onto a 24-well plate) at (0.5-1)×10^5 cells/well. During the transfection, in general, the cell density was preferably 60%-80%; […] was transfected into each well, and the Lipofectamine MessengerMAX Transfection Reagent (Invitrogen) was selected as the transfection reagent and used according to its usage instructions. The transfected cells were placed in an incubator at 37° C. with CO2. After transfection for 4-6 h, the medium was replaced with a fresh complete medium. After incubation in the incubator at 37° C. with CO2 for 24 h, the fluorescence intensity of GFPs in the cells was observed through a fluorescence microscope, and the fluorescence intensity ratios of Examples 1-7 and compounds 10-13, 16, 17, 25, 31 and 34 relative to Comparative Example 1 were calculated based on the fluorescence intensities."}}, "data": [{"smiles": "COC1[C@@H](OP(=O)(O)/C=C/[C@H]2O[C@@H](n3cnc4c(=O)[nH]c(N)nc43)C(O)[C@H]2O)[C@@H](/C=C\\P(=O)(O)OP(=O)(O)OP(=O)(O)/C=C\\[C@H]2O[C@@H](n3c[n+](C)c4c(=O)[nH]c(N)nc43)[C@@H](O)C2O)O[C@H]1n1cnc2c(N)ncnc21", "note": "(stereo partly shown) [Example 7]", "values": [{"measurement": "Yield", "setting": "[1]; mRNA from 20 μL IVT system, 1 μl 100 mM cap analog, 1 μg template, 37° C. 2 h", "value": 85, "unit": "µg"}, {"measurement": "in-vitro transcription yield compared with Comparative Example 1 (in words)", "setting": "[1]; text summary of Table 4", "value": "significantly lower than those of Comparative Example 1"}, {"measurement": "Capping rate", "setting": "[2]; LC-MS of mRNA transcribed with the cap analog", "value": 82.6, "unit": "%"}, {"measurement": "capping efficiency compared with Comparative Example 1 (in words)", "setting": "[2]; text summary of Table 4", "value": "significantly lower than those of Comparative Example 1"}, {"measurement": "binding constant to elF4E protein compared with Comparative Example 1 (in words)", "setting": "[3]; Table 5", "value": "the lowest as compared to Comparative Example 1"}, {"measurement": "Kd", "setting": "[3]; cap analog to elF4E protein, running buffer pH 6.0 or 7.4, read-out: Binding constant (converted)", "value": 1160, "unit": "nM"}, {"measurement": "intracellular translation effect of mRNA compared with Comparative Example 1 (in words)", "setting": "[4]", "value": "the lowest as compared to Comparative Example 1"}]}]}
